Where two headings read alike, the source gives them in different places.
Legend:
IRAK4 [1] = biological target: T1, IRAK4 (Homo sapiens, UniProt Q9NWZ3); test: IRAK4 degradation in OCI-LY10 xenograft tumors (UPLC-MS/MS, tumor PD); type: in vivo; details: for IRAK4 (% Deg): tumor PD, after 5d dosing
T1 construct: endogenous in cells; host or cells: OCI-Ly10
T1 sequence (Q9NWZ3 1-460): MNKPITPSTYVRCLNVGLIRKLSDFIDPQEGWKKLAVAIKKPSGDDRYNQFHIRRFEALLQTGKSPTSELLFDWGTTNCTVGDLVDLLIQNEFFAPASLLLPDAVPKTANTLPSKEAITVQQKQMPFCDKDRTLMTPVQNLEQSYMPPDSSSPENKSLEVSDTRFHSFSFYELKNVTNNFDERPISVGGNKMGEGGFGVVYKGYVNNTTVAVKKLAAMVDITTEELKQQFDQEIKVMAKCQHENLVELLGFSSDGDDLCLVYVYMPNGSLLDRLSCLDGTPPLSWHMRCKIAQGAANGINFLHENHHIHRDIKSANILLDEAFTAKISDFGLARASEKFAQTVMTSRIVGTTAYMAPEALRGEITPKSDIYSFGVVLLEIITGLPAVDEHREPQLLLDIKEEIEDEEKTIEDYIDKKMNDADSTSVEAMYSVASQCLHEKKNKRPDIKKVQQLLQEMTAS
Method: (§1) At termination: At pre-determined time points based on study design, animals were humanely sacrificed by CO2. Blood was obtained by cardiac puncture for isolation of plasma, any residual tumor was removed and divided in 2 portions, 1 (minimal) for terminal compound exposure and 1 to determine IRAK4 and actin. Compound was determined in tumor and plasma using LC/MS with calibrated standards.
Interleukin-1 receptor-associated kinase 4 (IRAK4) was quantified in human OCI-LY10 xenograft tumors, together with mouse splenocytes and peripheral blood mononuclear cells (PBMCs), by ultra-performance liquid chromatography-tandem mass spectrometry (UPLC-MS/MS). The concentrations of IRAK4 were normalized by the concentrations of actin in the respective samples. The tumors, splenocytes and PBMCs were lysed in tissue protein extraction reagent (T-PER, ThermoFisher). The samples were centrifuged at 10,000 rpm for 10 minutes. The supernatant (cell lysate) was transferred to another tube. The cell lysates were denatured, reduced, and alkylated with iodoacetamide. The alkylated samples were treated with trypsin to generate the IRAK4 peptide LAVAIK and the actin peptide GYSFTTTAER. These peptides are unique and specific to IRAK4 and actin, respectively, in human, rat and mouse cells and tissues due to sequence conservation between these species.
Signature peptide concentrations were quantitated using a sensitive and specific targeted LC-MS/MS method. Corresponding mass-shifted, stable isotope-labeled peptides (LAV(d8)AIK and GYSF(d8)TTTAE(d6)R) were used as internal standards (ISs). Calibration standards and were prepared fresh on the day of analysis by diluting synthetic LAVAIK and […] peptides into 0.1% formic acid in 90/10 water acetonitrile (v/v). The standards and study samples) were aliquoted into a 96-well plate and mixed with IS spiking solution. The sample plate was covered with heating foil.
Signature peptide levels (LAVAIK, GYSFTTTAER) were quantified by UPLC-MS/MS. Injections were made using a Shimadzu ultra performance liquid chromatograph (UPLC) platform. Mobile phase A was 0.1% formic acid in water. Mobile phase B was 0.1% formic acid in 90:10 acetonitrile/water (v/v). A SCIEX TripleTOF 6600 LC-MS/MS system was used for the detection and quantitation of analytes. The intensities of the analytes and ISs were determined by integration of extracted ion peak areas using Analyst and MultiQuant 3.0 software. Calibration curves were prepared by plotting the analyte to IS peak area ratio vs. concentration. The model for the calibration curves was linear with 1/x^2 weighting. […] Measured peptide levels were corrected for sample work up and converted to actual protein concentrations in ng/mg total protein of cell lysate. […]

IRAK4 [2] = biological target: T1, IRAK4; test: Deep proteomics / degradation time course in OCI-Ly10 (FIG. 8); type: cell-based; details: OCI-Ly10, between 16-24 h post treatment
From the text: FIG. 8 depicts deep proteomics scatterplots showing degradation of IRAK4 and IMiD substrates in OCI-Ly10 using Compound A. Type 1 IFN signaling was activated in OCI-Ly10 MYD88^MT DLBCL.

[3] = Compound exposure (PK) in plasma, spleen and tumor of OCI-Ly10 xenograph mice; type: in vivo, mouse
Method: as §1

[4] = C.B. 17 SCID, mouse, plasma, 10 mg/kg, 10 mpk PO

Structure (SMILES): CC(C)(O)c1cc2nc([C@H]3CC[C@H](CN4CC5(CC(CCNc6cccc7c6C(=O)N(C6CCC(=O)NC6=O)C7=O)C5)C4)CC3)sc2cc1NC(=O)c1cccc(C(F)(F)F)n1 (stereo partly shown) [Compound A, N-(2-((1r,4r)-4-((6-(2-((2-(2,6-dioxopiperidin-3-yl)-1,3-dioxoisoindolin-4-yl)amino)ethyl)-2-azaspiro[3.3]heptan-2-yl)methyl)cyclohexyl)-5-(2-hydroxypropan-2-yl)benzo[d]thiazol-6-yl)-6-(trifluoromethyl)picolinamide]
- tumor PD effect (IRAK4 [1]; following a single dose, FIG. 4): sustained PD effect
- IRAK4 (% Deg) (IRAK4 [1]; 3 mpk): 16%
- IRAK4 (% Deg) (IRAK4 [1]; 10 mpk): 75%
- IRAK4 (% Deg) (IRAK4 [1]; 30 mpk): 83%
- degradation of IRAK4 (time course) (IRAK4 [2]): > 80%
- F ([3]; 10 mpk PO): 19.0%
- AUC(0-t) [3, 4]: 2.83 µM·h
- Cmax [3, 4]: 180 nM
- Tmax [3, 4]: 8 h
- half-life [3, 4]: 9.35 h
- concentration at 24 h ([3]; C.B. 17 SCID, mouse, plasma, 3 mpk, after 5d dosing, read-out: Plasma C24 h): 10 nM
- concentration at 24 h ([3]; C.B. 17 SCID, mouse, plasma, 10 mpk PO, read-out: C24 h): 55 nM
- concentration at 24 h ([3]; C.B. 17 SCID, mouse, plasma, 10 mpk, after 5d dosing, read-out: Plasma C24 h): 80 nM
- concentration at 24 h ([3]; C.B. 17 SCID, mouse, plasma, 30 mpk, after 5d dosing, read-out: Plasma C24 h): 640 nM
- concentration at 24 h ([3]; C.B. 17 SCID, mouse, plasma, based on either a 3 mpk or 10 mpk dose, read-out: Target exposure for efficacy in OCI-Ly10: steady state C24h): 10 to 80 nM
- concentration at 24 h ([3]; C.B. 17 SCID, mouse, spleen, 3 mpk, after 5d dosing, read-out: Spleen C24 h): 500 nM
- concentration at 24 h ([3]; C.B. 17 SCID, mouse, spleen, 10 mpk, after 5d dosing, read-out: Spleen C24 h): 4100 nM
- concentration at 24 h ([3]; C.B. 17 SCID, mouse, spleen, 30 mpk, after 5d dosing, read-out: Spleen C24 h): 59000 nM
- concentration at 24 h ([3]; C.B. 17 SCID, mouse, tumor, 3 mpk, after 5d dosing, read-out: Tumor C24 h): 430 nM
- concentration at 24 h ([3]; C.B. 17 SCID, mouse, tumor, 10 mpk, after 5d dosing, read-out: Tumor C24 h): 4200 nM
- concentration at 24 h ([3]; C.B. 17 SCID, mouse, tumor, 30 mpk, after 5d dosing, read-out: Tumor C24 h): 64000 nM
- tissue exposure relative to plasma ([3]; single dose, FIG. 4): high tissue exposure relative to plasma

From patent publication US11857535B2, “Methods of treating mutant lymphomas” (Kymera Therapeutics, Inc., priority 2020, dated 2024)
